# Data published in publication PMC11882969 (Nature Communications, 2025).
# “And” between values parts separate entries of the source, which are not always exact repeats. Equal values may be shown once. Read-outs that look alike come from different tables or passages of the source. Marks after values point to notes of the source that are not given here.
# Assays:
# hCB1 [1] = biological target: T1, hCB1 (Homo sapiens, UniProt P21554); test: bioSensAll ebBRET signaling profiling, hCB1; format: cell-based; design: host or cells: HEK293SL cells, transient PEI transfection; conditions: for Barr2+GRK2 hCB1 response: Barr2+GRK2 biosensor; for Gi1 hCB1 / GoB hCB1: single replicate values, FigS6a; for EC50: read-out: EC50 [95% CI]; for Emax: normalized to CP-55,940
# T1 sequence (P21554 whole entry): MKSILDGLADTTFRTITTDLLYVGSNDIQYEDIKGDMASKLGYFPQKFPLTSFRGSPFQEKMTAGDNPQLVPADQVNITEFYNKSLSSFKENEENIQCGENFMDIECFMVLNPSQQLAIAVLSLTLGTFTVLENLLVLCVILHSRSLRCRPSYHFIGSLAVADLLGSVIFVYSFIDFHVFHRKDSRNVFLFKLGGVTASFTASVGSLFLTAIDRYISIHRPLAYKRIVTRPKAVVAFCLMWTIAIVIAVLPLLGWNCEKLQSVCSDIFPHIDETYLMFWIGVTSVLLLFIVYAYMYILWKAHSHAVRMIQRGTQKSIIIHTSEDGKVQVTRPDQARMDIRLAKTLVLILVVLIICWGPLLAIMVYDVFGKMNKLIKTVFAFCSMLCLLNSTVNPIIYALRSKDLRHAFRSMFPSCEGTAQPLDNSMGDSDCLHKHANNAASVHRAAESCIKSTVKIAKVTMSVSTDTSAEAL
# hCB1 [2] = biological target: T1, hCB1; test: Lance Ultra cAMP accumulation assay, CHO cells; format: cell-based; design: expressed in transfected cells; conditions: replicates, sheet FigureS2a;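 further: human CB1R stably expressed in CHO cells, ligands co-incubated with forskolin at room temperature, read-out is lowering of forskolin-stimulated cAMP accumulation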
# CB1 (rCB1) [3] = biological target: T2, CB1 (rCB1) (Rattus norvegicus, UniProt P20272); test: Radioligand competition binding, [3H]-CP-55,940, rat brain membranes
# T2 sequence (P20272 whole entry): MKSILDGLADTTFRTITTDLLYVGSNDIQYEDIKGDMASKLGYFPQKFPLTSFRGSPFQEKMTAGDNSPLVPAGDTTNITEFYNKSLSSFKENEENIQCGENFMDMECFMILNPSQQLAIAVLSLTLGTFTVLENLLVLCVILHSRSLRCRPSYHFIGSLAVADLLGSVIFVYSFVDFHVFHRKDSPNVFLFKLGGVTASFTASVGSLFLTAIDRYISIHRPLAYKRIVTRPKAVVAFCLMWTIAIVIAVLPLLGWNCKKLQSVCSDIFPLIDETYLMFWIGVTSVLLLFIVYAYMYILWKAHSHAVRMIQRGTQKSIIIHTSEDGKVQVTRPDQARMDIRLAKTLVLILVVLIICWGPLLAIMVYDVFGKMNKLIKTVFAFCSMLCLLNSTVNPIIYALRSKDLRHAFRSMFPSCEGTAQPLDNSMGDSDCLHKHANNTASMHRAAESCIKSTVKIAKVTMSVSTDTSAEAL
# [4] = Dynamic light scattering, colloidal aggregation; format: physicochemical; conditions: Log[compound, replicates, sheet FigS2b
# Procedure: Samples were prepared as 8-point half-log dilutions in filtered 50 mM KPi buffer, pH 7.0 with final DMSO concentration at 1% (v/v). Colloidal particle formation was measured using DynaPro Plate Reader II (Wyatt Technologies). All compounds were screened in triplicate.
# CB1 (rCB1) [5] = biological target: T2, CB1 (rCB1); test: Single-point radioligand displacement screen; format: binding
smiles,measurement,setting,value
Cc1c(C(=O)OCC2CSc3ccccc3O2)cnn1Cc1ccccc1 (centres unmarked) [‘7800],Barr2+GRK2 hCB1 response,hCB1 [1]; Log [Compound] (M) -4.22186,3.174
same,Barr2+GRK2 hCB1 response,hCB1 [1]; Log [Compound] (M) -4.63927,-20.118
same,Barr2+GRK2 hCB1 response,hCB1 [1]; Log [Compound] (M) -5.05788,-51.0681
same,Barr2+GRK2 hCB1 response,hCB1 [1]; Log [Compound] (M) -5.47381,-52.3444
same,Barr2+GRK2 hCB1 response,hCB1 [1]; Log [Compound] (M) -5.89285,-39.9006
same,Barr2+GRK2 hCB1 response,hCB1 [1]; Log [Compound] (M) -6.31878,-51.3872
same,Barr2+GRK2 hCB1 response,hCB1 [1]; Log [Compound] (M) -6.72585,-54.5779
same,Barr2+GRK2 hCB1 response,hCB1 [1]; Log [Compound] (M) -7.14267,-56.4924
same,Barr2+GRK2 hCB1 response,hCB1 [1]; Log [Compound] (M) -7.55284,-57.7686
same,Barr2+GRK2 hCB1 response,hCB1 [1]; Log [Compound] (M) -8,-46.9202
same,Barr2+GRK2 hCB1 response,hCB1 [1]; Log [Compound] (M) -8.22186,-10.8649
same,Barr2+GRK2 hCB1 response,hCB1 [1]; Log [Compound] (M) -8.39794,-42.7722
same,Barr2+GRK2 hCB1 response,hCB1 [1]; Log [Compound] (M) -8.68787,-27.1376
same,Barr2+GRK2 hCB1 response,hCB1 [1]; Log [Compound] (M) -9.15521,-45.9629
same,Barr2+GRK2 hCB1 response,hCB1 [1]; Log [Compound] (M) -9.61989,-54.897
same,Barr2+GRK2 hCB1 response,hCB1 [1]; Log [Compound] (M) -10.0969,-61.2784
same,Barr2+GRK2 hCB1 response,hCB1 [1]; Log [Compound] (M) -10.5529,-43.4104
same,Barr2+GRK2 hCB1 response,hCB1 [1]; Log [Compound] (M) -11.0177,-60.6403
same,Barr2+GRK2 hCB1 response,hCB1 [1]; Log [Compound] (M) -11.4949,-45.3248
same,Barr2+GRK2 hCB1 response,hCB1 [1]; Log [Compound] (M) -11.9208,-40.5387
same,Barr2+GRK2 hCB1 response,hCB1 [1]; Log [Compound] (M) -12.3979,-30.0093
same,Barr2+GRK2 hCB1 response,hCB1 [1]; Log [Compound] (M) -12.8861,-43.4104
same,Barr2+GRK2 hCB1 response,hCB1 [1]; Log [Compound] (M) -13.3979,-3.845
same,Gi1 hCB1,hCB1 [1]; Log [Compound] (M) -4.22186,25.6433
same,GoB hCB1,hCB1 [1]; Log [Compound] (M) -4.22186,18.8832
same,Gi1 hCB1,hCB1 [1]; Log [Compound] (M) -4.63927,18.3425
same,GoB hCB1,hCB1 [1]; Log [Compound] (M) -4.63927,15.081
same,Gi1 hCB1,hCB1 [1]; Log [Compound] (M) -5.05788,16.1253
same,GoB hCB1,hCB1 [1]; Log [Compound] (M) -5.05788,13.1365
same,Gi1 hCB1,hCB1 [1]; Log [Compound] (M) -5.47381,12.8471
same,GoB hCB1,hCB1 [1]; Log [Compound] (M) -5.47381,14.5949
same,Gi1 hCB1,hCB1 [1]; Log [Compound] (M) -5.89285,10.5191
same,GoB hCB1,hCB1 [1]; Log [Compound] (M) -5.89285,11.0184
same,Gi1 hCB1,hCB1 [1]; Log [Compound] (M) -6.31878,9.3
same,GoB hCB1,hCB1 [1]; Log [Compound] (M) -6.31878,4.265
same,Gi1 hCB1,hCB1 [1]; Log [Compound] (M) -6.72585,1.761
same,GoB hCB1,hCB1 [1]; Log [Compound] (M) -6.72585,-3.895
same,Gi1 hCB1,hCB1 [1]; Log [Compound] (M) -7.14267,-0.6935
same,GoB hCB1,hCB1 [1]; Log [Compound] (M) -7.14267,-5.024
same,Gi1 hCB1,hCB1 [1]; Log [Compound] (M) -7.55284,-2.087
same,GoB hCB1,hCB1 [1]; Log [Compound] (M) -7.55284,-3.843
same,Gi1 hCB1,hCB1 [1]; Log [Compound] (M) -8,-2.0396
same,GoB hCB1,hCB1 [1]; Log [Compound] (M) -8,-4.659
same,Gi1 hCB1,hCB1 [1]; Log [Compound] (M) -8.22186,3.424
same,GoB hCB1,hCB1 [1]; Log [Compound] (M) -8.22186,-0.09294
same,Gi1 hCB1,hCB1 [1]; Log [Compound] (M) -8.39794,-0.9469
same,GoB hCB1,hCB1 [1]; Log [Compound] (M) -8.39794,-3.478
same,Gi1 hCB1,hCB1 [1]; Log [Compound] (M) -8.68787,-0.4717
same,GoB hCB1,hCB1 [1]; Log [Compound] (M) -8.68787,-5.371
same,Gi1 hCB1,hCB1 [1]; Log [Compound] (M) -9.15521,-0.4876
same,GoB hCB1,hCB1 [1]; Log [Compound] (M) -9.15521,-5.492
same,Gi1 hCB1,hCB1 [1]; Log [Compound] (M) -9.61989,0.05088
same,GoB hCB1,hCB1 [1]; Log [Compound] (M) -9.61989,-8.027
same,Gi1 hCB1,hCB1 [1]; Log [Compound] (M) -10.0969,-0.4084
same,GoB hCB1,hCB1 [1]; Log [Compound] (M) -10.0969,-5.128
same,Gi1 hCB1,hCB1 [1]; Log [Compound] (M) -10.5529,-1.2
same,GoB hCB1,hCB1 [1]; Log [Compound] (M) -10.5529,-2.958
same,Gi1 hCB1,hCB1 [1]; Log [Compound] (M) -11.0177,-3.528
same,GoB hCB1,hCB1 [1]; Log [Compound] (M) -11.0177,-7.871
same,Gi1 hCB1,hCB1 [1]; Log [Compound] (M) -11.4949,-2.61
same,GoB hCB1,hCB1 [1]; Log [Compound] (M) -11.4949,-5.562
same,Gi1 hCB1,hCB1 [1]; Log [Compound] (M) -11.9208,-3.829
same,GoB hCB1,hCB1 [1]; Log [Compound] (M) -11.9208,-5.683
same,Gi1 hCB1,hCB1 [1]; Log [Compound] (M) -12.3979,-3.75
same,GoB hCB1,hCB1 [1]; Log [Compound] (M) -12.3979,-6.656
same,Gi1 hCB1,hCB1 [1]; Log [Compound] (M) -12.8861,-1.469
same,GoB hCB1,hCB1 [1]; Log [Compound] (M) -12.8861,-6.1521
same,Gi1 hCB1,hCB1 [1]; Log [Compound] (M) -13,0.2409
same,GoB hCB1,hCB1 [1]; Log [Compound] (M) -13,-5.215
same,Gi1 hCB1,hCB1 [1]; Log [Compound] (M) cell empty,-0.4876
same,GoB hCB1,hCB1 [1]; Log [Compound] (M) cell empty,-5.406
same,pEC50 [95% CI],hCB1 [1]; hCB1 Gi1,5.2 [6.0]
same,pEC50 [95% CI],hCB1 [1]; hCB1 GoB,6.2 [5.9 – 6.4]
same,EC50,hCB1 [1]; hCB1 Gi1,6.79 µM
same,EC50,hCB1 [1]; hCB1 GoB,0.597 µM
same,Emax,"hCB1 [1]; read-out: Emax [95% CI], hCB1 Gi1",34%
same,Emax,"hCB1 [1]; read-out: Emax [95% CI], hCB1 GoB",21%
same,"cAMP assay signal, concentration-response point",hCB1 [2]; compound 0.01 nM,0.002674 and 0.00241 and 0.002252
same,"cAMP assay signal, concentration-response point",hCB1 [2]; compound 0.1 nM,0.00346* and 0.001953 and 0.002364
same,"cAMP assay signal, concentration-response point",hCB1 [2]; compound 1 nM,0.002571 and 0.002123 and 0.001894
same,"cAMP assay signal, concentration-response point",hCB1 [2]; compound 10 nM,0.002732 and 0.002198 and 0.002584
same,"cAMP assay signal, concentration-response point",hCB1 [2]; compound 100 nM,0.002212 and 0.002457 and 0.002193
same,"cAMP assay signal, concentration-response point",hCB1 [2]; compound 1000 nM,0.002381 (2×) and 0.002128
same,"cAMP assay signal, concentration-response point",hCB1 [2]; compound 10000 nM,0.002 and 0.002342 and 0.001808
same,"cAMP assay signal, concentration-response point",hCB1 [2]; compound 100000 nM,0.001289 and 0.001131 and 0.00137
same,"radioligand binding remaining, competition curve (Figure2e), replicate values",CB1 (rCB1) [3]; log[drug] -3.643,10.4237 and 31.3638 and 29.0535
same,"radioligand binding remaining, competition curve (Figure2e), replicate values",CB1 (rCB1) [3]; log[drug] -4.35655,33.4463 and 9.669 and 4.937
same,"radioligand binding remaining, competition curve (Figure2e), replicate values",CB1 (rCB1) [3]; log[drug] -5.07,28.6441 and 35.1835 and 32.9974
same,"radioligand binding remaining, competition curve (Figure2e), replicate values",CB1 (rCB1) [3]; log[drug] -5.783,65.4237 and 64.1301 and 55.9597
same,"radioligand binding remaining, competition curve (Figure2e), replicate values",CB1 (rCB1) [3]; log[drug] -6.496,99.1808 and 92.7484 and 90.0088
same,"radioligand binding remaining, competition curve (Figure2e), replicate values",CB1 (rCB1) [3]; log[drug] -7.21,109.096 and 99.3733 and 111.043
same,"radioligand binding remaining, competition curve (Figure2e), replicate values",CB1 (rCB1) [3]; log[drug] -7.923,105.847 and 88.1826 and 105.215
same,"radioligand binding remaining, competition curve (Figure2e), replicate values",CB1 (rCB1) [3]; log[drug] -8.636,93.4322 and 101.298 and 96.7572
same,pKi [95% CI],CB1 (rCB1) [3]; rCB1,6.0 [5.78 – 6.21]
same,DLS scattering intensity,[4]; uM] 0,1640000 and 1120000 and 1230000
same,DLS scattering intensity,[4]; uM] 1,22000000 and 23800000 and 19200000
same,DLS scattering intensity,[4]; uM] 1.49996,97300000 and 53900000 and 120000000
same,DLS scattering intensity,[4]; uM] 2,210000000 and 155600000 and 163000000
same,DLS scattering intensity,[4]; uM] -0.500011,631259 and 1270000 and 2510000
same,DLS scattering intensity,[4]; uM] -1,884292 and 807566 and 1180000
same,"% 1H-CP-55,940 displacement (mean) from single point screen","CB1 (rCB1) [5]; 10 µM, 1 µM or 300 nM by cell colour (not visible)",80.92%
same,rep1_displacement,"CB1 (rCB1) [5]; Figure 1c source data, replicate 1",81.9
same,rep2_displacement,"CB1 (rCB1) [5]; Figure 1c source data, replicate 2",79.7
same,rep3_displacement,"CB1 (rCB1) [5]; Figure 1c source data, replicate 3",81.1
